Source: article PMC5626944 (Frontiers in Pharmacology, 2017)
Read-outs that look alike come from different tables or passages of the source.

Experiments:
[1] = system: Potassium Channel, Ca2+ Act., VI; assay: NovaScreen competition binding; details: 1 µM
Muscarinic, M4 (h) = assay: NovaScreen competition binding; set-up: species or system human; details: 1 µM
Adrenergic, Alpha 2B = assay: NovaScreen competition binding; details: 1 µM
Sigma 2 = assay: NovaScreen competition binding; details: 1 µM
[2] = system: WT, α6L9′S, α6KO, α4KO and β2KO mice; assay: Conditioned place preference; format: in vivo, mouse; details: for ED50: Mus musculus, read-out: CPP ED50
Description: Male, 3–6-month-old mice were used in our CPP assays. Various genotypes were used: WT, α6L9′S, α4L9′S (hypersensitive […]), α6KO, α4KO, and β2KO. All WT mice were C57BL/6J and all other genotypes have been backcrossed with C57BL/6J mice for ≥10 generations. The CPP apparatus (Med Associates, East Fairfield, VT, United States) was a rectangular cage with interior dimensions of 46.5 × 12.7 × 12.7(H) cm, divided into three sub-compartments: white and black (each 16.8 cm L) with steel mesh and rod floors, respectively, and a central gray compartment (7.2 cm L) with a solid plastic floor. […] Drop-down doors separated the chambers.
Mice were housed singly and habituated to the experimental room for 3–7 days before initial testing and remained in the experimental room for the duration of the experiment. We chose a biased method for CPP. On day 1 (pre-training) mice were placed in the center chamber and allowed to explore the apparatus freely for 20 min. Time spent in each chamber was recorded, and drug pairing was determined by the least preferred chamber. Mice with a severe initial bias for one chamber (defined as ≥65% time spent in one conditioning chamber) were excluded. On days 2, 4, 6, and 8, mice were injected with the drug of interest, and were confined to the drug-paired chamber for 20 min. On days 3, 5, 7, and 9, mice were injected with saline and confined to the opposite chamber. On day 10 (post-training), mice were again given free access to the apparatus for 20 min, and the time spent in each chamber was recorded. CPP was determined by measuring the change in the difference between the time spent in the drug-paired chamber and the saline-paired chamber from pre- to post-training.

[3] = system: Potassium Channel, ATP-Sensitive; assay: NovaScreen competition binding; details: 1 µM
Description: (§1) Assays included the nicotinic drug [^3H]epibatidine binding to α-bungarotoxin-insensitive nAChRs, the 5-HT3 inhibitor [N-methyl-^3H]GR65630 to mouse receptors in N1E-115 cells, and human receptors expressed in a clonal cell line. Other assays included monoamine oxidase A, monoamine oxidase B, 5-HT transporter, norepinephrine transporter, and dopamine transporter, as well as other. G-protein-coupled receptors, ion channels, enzymes, and transporters.

[4] = system: Nicotinic, Neuronal (α-BnTx insensitive); assay: NovaScreen competition binding; details: 1 µM
Description: as §1

Leukotriene, LTB4 (BLT) = assay: NovaScreen competition binding; details: 1 µM
[5] = system: Glutamate, AMPA Site (Ionotropic); assay: NovaScreen competition binding; details: 1 µM
Muscarinic, M1 (hr) = assay: NovaScreen competition binding; set-up: species or system human; details: 1 µM
[6] = system: T1, GABA A, BDZ, alpha 1 site; assay: NovaScreen competition binding; details: 1 µM
T1 construct: PerkinElmer – Caliper Life Sciences (NovaScreen)

Serotonin Transporter = assay: NovaScreen competition binding; details: 1 µM
Dopamine, D2s (h) = assay: NovaScreen competition binding; set-up: species or system human; details: 1 µM
α4-GFPβ2DM nAChRs = target: T2, α4-GFPβ2DM nAChRs (Mus musculus, UniProt O70174+Q9ERK7, L349M/R365A/R366A/R368A); assay: Whole-cell patch-clamp recordings in transfected neuro-2a cells; format: cell-based; details: α4β2 single component, transfected in Neuro-2a cells
T2 construct: expressed in transfected cells; host or cells: mouse neuroblastoma neuro-2a (ATCC CCL-131)
T2 sequence (O70174 31-629): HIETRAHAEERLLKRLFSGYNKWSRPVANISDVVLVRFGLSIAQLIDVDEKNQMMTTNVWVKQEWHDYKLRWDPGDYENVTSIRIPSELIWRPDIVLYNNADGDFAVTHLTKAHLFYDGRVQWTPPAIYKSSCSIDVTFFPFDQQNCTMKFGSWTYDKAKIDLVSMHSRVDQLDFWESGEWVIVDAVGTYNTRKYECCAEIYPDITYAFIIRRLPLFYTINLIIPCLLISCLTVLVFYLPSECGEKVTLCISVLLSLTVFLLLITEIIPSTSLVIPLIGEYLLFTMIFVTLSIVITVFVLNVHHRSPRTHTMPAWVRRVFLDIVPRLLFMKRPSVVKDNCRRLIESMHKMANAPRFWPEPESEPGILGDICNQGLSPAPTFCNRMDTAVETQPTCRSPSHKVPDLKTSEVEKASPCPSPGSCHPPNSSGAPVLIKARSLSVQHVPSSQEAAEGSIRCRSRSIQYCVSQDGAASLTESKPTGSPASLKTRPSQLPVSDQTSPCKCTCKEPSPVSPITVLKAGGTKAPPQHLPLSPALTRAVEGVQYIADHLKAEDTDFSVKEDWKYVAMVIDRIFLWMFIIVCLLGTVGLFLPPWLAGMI
T2 sequence (Q9ERK7 26-501 L349M/R365A/R366A/R368A): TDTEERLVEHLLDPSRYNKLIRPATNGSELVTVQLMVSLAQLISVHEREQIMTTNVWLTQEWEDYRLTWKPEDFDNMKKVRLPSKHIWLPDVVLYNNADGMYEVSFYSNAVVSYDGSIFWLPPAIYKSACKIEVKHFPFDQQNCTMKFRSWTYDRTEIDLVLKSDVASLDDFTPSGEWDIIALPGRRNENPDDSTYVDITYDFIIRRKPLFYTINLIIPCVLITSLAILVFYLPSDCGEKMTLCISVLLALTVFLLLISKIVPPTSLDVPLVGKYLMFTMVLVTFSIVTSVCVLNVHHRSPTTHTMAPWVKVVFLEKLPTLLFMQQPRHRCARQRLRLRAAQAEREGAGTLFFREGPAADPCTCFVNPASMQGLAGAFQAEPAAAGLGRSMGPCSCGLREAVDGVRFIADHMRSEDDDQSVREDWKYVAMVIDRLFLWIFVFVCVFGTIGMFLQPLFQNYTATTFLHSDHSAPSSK
Description: (§2) Cells were transfected with 500 ng of: α4-GFP and β2DM or α6-GFP, β2DM, and β3 nAChR subunits.
(§3) For the patch-clamp experiments, we used mouse neuro-2a cells. […] Transfected cells displaying eGFP fluorescence were identified for patching using an inverted epifluorescence microscope. […] The resistance of the patch pipettes was 2–4 MΩ. The extracellular solution contained (in mM): 140 NaCl, 5 KCl, 2 CaCl2, 1 MgCl2, 10 HEPES, and 10 glucose (320 mOsm, pH set to 7.3 with Tris-base). […] The data were sampled at 10 kHz and low-pass filtered at 2 kHz prior to digitization. All experiments were performed at 24°C and the recording chamber was continually perfused with extracellular solution. To avoid receptor desensitization by repetitive agonist application, agonists were applied at intervals ≥3 min. An Octaflow II superfusion system (ALA Scientific Instruments) was used to apply the agonist for concentration-response studies. Applications were 500 ms at 6 psi. […] Following the collection of the full concentration range an additional test pulse was repeated to assess accumulated desensitization.
(§4) Data were fit to a single Hill term using Origin 10 software. Data are expressed as mean ± SEM.

α6-GFPβ2DMβ3 nAChRs = target: T3, α6-GFPβ2DMβ3 nAChRs (Mus musculus, UniProt Q9ERK7+Q9R0W9, L349M/R365A/R366A/R368A); assay: as above; format: cell-based
T3 construct: expressed in transfected cells; host or cells: mouse neuroblastoma neuro-2a (ATCC CCL-131)
T3 sequence (Q8BMN3 31-464, stated change not applied): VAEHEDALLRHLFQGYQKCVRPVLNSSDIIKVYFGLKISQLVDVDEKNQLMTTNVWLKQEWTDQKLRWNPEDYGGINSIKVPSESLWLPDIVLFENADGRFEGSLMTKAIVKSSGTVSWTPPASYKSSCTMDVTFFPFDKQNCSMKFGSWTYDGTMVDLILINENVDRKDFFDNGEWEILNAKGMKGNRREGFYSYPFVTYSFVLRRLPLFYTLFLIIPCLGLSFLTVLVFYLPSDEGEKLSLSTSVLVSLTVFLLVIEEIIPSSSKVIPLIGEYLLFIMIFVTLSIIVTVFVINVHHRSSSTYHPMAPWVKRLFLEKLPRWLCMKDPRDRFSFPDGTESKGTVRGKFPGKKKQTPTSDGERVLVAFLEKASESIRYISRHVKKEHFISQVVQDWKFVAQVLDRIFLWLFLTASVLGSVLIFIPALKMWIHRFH
T3 sequence (Q9R0W9 31-494): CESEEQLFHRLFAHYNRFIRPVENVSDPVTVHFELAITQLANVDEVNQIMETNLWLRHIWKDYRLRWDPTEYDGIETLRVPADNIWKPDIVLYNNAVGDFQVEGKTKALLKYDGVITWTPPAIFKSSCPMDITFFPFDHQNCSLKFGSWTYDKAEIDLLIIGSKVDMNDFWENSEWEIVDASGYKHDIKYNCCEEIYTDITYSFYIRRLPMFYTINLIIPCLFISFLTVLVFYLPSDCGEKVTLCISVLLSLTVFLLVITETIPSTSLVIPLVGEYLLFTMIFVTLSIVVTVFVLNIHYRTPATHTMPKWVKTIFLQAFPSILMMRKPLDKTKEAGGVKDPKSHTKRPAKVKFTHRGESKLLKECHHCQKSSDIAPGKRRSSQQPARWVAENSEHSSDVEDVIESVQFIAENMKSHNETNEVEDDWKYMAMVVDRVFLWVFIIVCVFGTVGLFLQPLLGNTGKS
T3 sequence (Q9ERK7 26-501 L349M/R365A/R366A/R368A): as the sequence (Q9ERK7 26-501 L349M/R365A/R366A/R368A) above
Description: as §2, §3, §4

Dopamine, D3 = assay: NovaScreen competition binding; details: 1 µM
[7] = system: Potassium Channel, I[Kr] (hERG) (h); assay: NovaScreen competition binding; set-up: species or system human; details: 1 µM
[8] = system: hERG potassium channel (IKr); assay: NovaScreen competition binding; set-up: species or system human; details: human, probe [3H]Astemizole, [3H]Astemizole
Bradykinin, BK2 = system: T4, Bradykinin, BK2; assay: NovaScreen competition binding; details: 1 µM
T4 construct: PerkinElmer – Caliper Life Sciences (NovaScreen service)

With `C1=C(/c2cncnc2)CCCNCC/1` [TC299423, (E)-5-(pyrimidin-5-yl)-1,2,3,4,7,8-hexahydroazocine] the Hit [1] was “FALSE”, the Inhibition ([1]; [125I]Apamin) was -2.57% and the Hit (Muscarinic, M4 (h)) was “FALSE”. For the same molecule, the Inhibition (Muscarinic, M4 (h); [3H]Scopolamine, N-Methyl) was -6.69%, the Hit (Adrenergic, Alpha 2B) was “FALSE” and the Inhibition (Adrenergic, Alpha 2B; [3H]MK-912) was -14.09%. For the same molecule, the Hit (Sigma 2) was “FALSE”, the Inhibition (Sigma 2; [3H]-DTG) was -0.65% and the “CPP difference scores in α4KO mice vs WT” value ([2]; 0.012 mg/kg) was “no effect”. The “CPP difference scores in α6KO and β2KO mice vs WT” value ([2]; 0.012 mg/kg) was “dramatically reduced”, the ED50 ([2]; WT mice, Michaelis–Menten fit) was 4 ± 3 µg/kg and the ED50 ([2]; α6L9′S mice) was less than 1 µg/kg. For the same molecule, the “CPP difference score vs saline-injected control” value ([2]; WT mice, 0.012 mg/kg, t-test p = 0.047) was “marginally significant increase”, the “Overall effect on CPP” value ([2]; WT mice, 1, 4, 12, 25 μg/kg, one-way ANOVA) was “no significant overall effect” and the “Overall effect on the CPP difference score” value ([2]; α6L9′S mice, 1, 4, 12, 25 μg/kg, one-way ANOVA) was “highly significant overall effect”. The “CPP difference score vs saline-injected controls” value ([2]; α6L9′S mice, 1 and 25 μg/kg, Tukey HSD p < 0.05) was “significantly greater than the saline-injected controls”, the Hit [3] was “TRUE (TC299423 inhibited >50% of the reference radioligand for two sites)” and the Inhibition ([3]; [3H]Glibenclamide) was 52.12%. The Hit [4] was “TRUE (TC299423 inhibited >50% of the reference radioligand for two sites)”, the Inhibition ([4]; [3H]Epibatidine) was 93.33% and the Hit (Leukotriene, LTB4 (BLT)) was “FALSE”. For the same molecule, the Inhibition (Leukotriene, LTB4 (BLT); [3H]LTB4) was 29.86%, the Hit [5] was “FALSE” and the Inhibition ([5]; [3H]AMPA) was -1.26%. For the same molecule, the Hit (Muscarinic, M1 (hr)) was “FALSE”, the Inhibition (Muscarinic, M1 (hr); [3H]Scopolamine, N-Methyl) was -11.73% and the Hit [6] was “FALSE”. The Inhibition ([6]; [3H]Flunitrazepam) was 11.84%, the Hit (Serotonin Transporter) was “FALSE” and the Inhibition (Serotonin Transporter; [3H]Citalopram, N-Methyl) was 7.03%. The Hit (Dopamine, D2s (h)) was “FALSE”, the Inhibition (Dopamine, D2s (h); [3H]-Raclopride) was -21.17% and the EC50 (α4-GFPβ2DM nAChRs) was 100 ± 20 nM. For the same molecule, the EC50 (α6-GFPβ2DMβ3 nAChRs; range over patch-clamp recordings and [3H]-dopamine release assays, read-out: EC50 for α6β2* nAChRs) was 30 to 60 nM, the EC50 (α6-GFPβ2DMβ3 nAChRs; α6β2β3 transfected in Neuro-2a cells, read-out: Patch clamp EC50) was 40 ± 10 nM and the Hit (Dopamine, D3) was “FALSE”. For the same molecule, the Inhibition (Dopamine, D3; [3H]7-OH-DPAT) was -16.93%, the Hit [7] was “FALSE” and the inhibition at 1 µM [8] was 14.5%. For the same molecule, the Hit (Bradykinin, BK2) was “FALSE” and the Inhibition (Bradykinin, BK2; [3H]Bradykinin) was 32.29%.
